Laboratory results: patent publication EP0412158A1, “ONCOSTATIC DRUG” (priority 1987, dated 1988)
Like-named read-outs stand apart in the source and are kept apart here. Marks after values point to notes of the source that are not given here.

Assays:
[1] = tested on: human breast cancer (MX-1); type: in vivo, female nude mice; conditions: for T/C: tumor volume
Experimental: A patch of human breast cancer [cancer cells recommended by National Cancer Institute (NCI) of U.S.A.] (MX-1) measuring approximately 2 x 2 mm in area was transplanted to female nude mice 5 weeks old. For 10 days following the 17th day of the transplantation, an aqueous solution containing 1% by weight of the aforementioned isopropylammonium polymolybdate (Compound A) was administered continuously at a dose of 100 mg/kg or 200 mg/kg once per day by intraperitoneal injection (ip). After the stop of the administration, the volume of tumor was measured daily for 15 or 20 days to evaluate the effect of the compound. With either of the dose of 100 mg/kg and the dose of 200 mg/kg, significant suppression of hyperplasia began to appear around the 6th day of administration of ip (x 10). Even after the stop of the administration (25th or 30th day), a distinct suppression of cancerous hyperplasia of about 70% was retained. Generally, by the NCI standard, a ratio of suppression exceeding 50% is rated as effective. […] For comparison, similar mice to which the human cancer was transplanted and the aqueous solution was not administered were tested by following the procedure described above.

[2] = tested on: breast cancer (MX-1); type: in vivo, female nude mice; conditions: 100 mg/kg ip ×10; for T/C: tumor volume
Experimental: A patch of breast cancer [cancer cells recommended by National Cancer Institute (NCI) of the U.S.A.] (MX-1) measuring approximately 2 x 2 mm in area was transplanted to each of female nude mice five weeks old. To the mice, an aqueous solution of the aforementioned heteropoly acid salt (Compound M) was administered at a dose of 100 mg/kg once a day by intraperitoneal injection for 10 consecutive days on elapse of 17 days following the transplantation of tumor (ip). For 15 days following the stop of the administration, the volumes of tumor in the mice were measured to evaluate the effect of compound. At ip (x 10), significant suppression of hyperplasia appeared around the 4th day and a strong supression of hyperplasia of cancer was maintained even after 25 days following the completion of transplantation. For comparison, mice to which no aqueous solution was administered were similarly tested.

## [NH3C3H7(iso)]s (Mo7O24] • 3H2O [Compound A]
[1]; 100 mg/kg and 200 mg/kg ip ×10, after the stop of the administration (25th or 30th day)
  suppression of cancerous hyperplasia: about 70%
[1]; 100 mg/kg ip ×10, 0 day
  Volume of tumor: 278.3±22.0 mm^3
[1]; 100 mg/kg ip ×10, 1 day
  Volume of tumor: 283.3±50.8 mm^3
  T/C: 67.3%
[1]; 100 mg/kg ip ×10, 2 day
  Volume of tumor: 302.3±58.6 mm^3
  T/C: 58.6%
[1]; 100 mg/kg ip ×10, 3 day
  Volume of tumor: 324.7±123.5 mm^3
  T/C: 60.5%
[1]; 100 mg/kg ip ×10, 4 day
  Volume of tumor: 366.3±121.7 mm^3
  T/C: 60.7%
[1]; 100 mg/kg ip ×10, 5 day
  Volume of tumor: 413.7±168.8 mm^3
  T/C: 57.8%
[1]; 100 mg/kg ip ×10, 6 day
  Volume of tumor: 366.0±121.3 mm^3
  T/C: 44.2** %
[1]; 100 mg/kg ip ×10, 7 day
  Volume of tumor: 302.7±173.5 mm^3
  T/C: 33.3** %
[1]; 100 mg/kg ip ×10, 9 day
  Volume of tumor: 397.3±226.9 mm^3
  T/C: 36.9* %
[1]; 100 mg/kg ip ×10, 10 day
  Volume of tumor: 406.7±202.6 mm^3
  T/C: 29.7*** %
[1]; 100 mg/kg ip ×10, 15 day
  Volume of tumor: 734.0±524.0 mm^3
  T/C: 33.3* %
[1]; 100 mg/kg ip ×10, 19 day
  Volume of tumor: 994.0±613.0 mm^3
  T/C: 37.4* %
[1]; 100 mg/kg ip ×10, 21 day
  Volume of tumor: 1039.0±646.0 mm^3
  T/C: 30.0* %
[1]; 100 mg/kg ip ×10, 25 day
  Volume of tumor: 1301.0±912.3 mm^3
  T/C: 32.6* %
[1]; 200 mg/kg ip ×10, 1 day
  Volume of tumor: 371.8±10.8 mm^3
[1]; 200 mg/kg ip ×10, 2 day
  Volume of tumor: 439.8±56.9 mm^3
[1]; 200 mg/kg ip ×10, 4 day
  Volume of tumor: 518.8±54.7 mm^3
  T/C: 62.1* %
[1]; 200 mg/kg ip ×10, 5 day
  Volume of tumor: 610.5±15.2 mm^3
  T/C: 55.9* %
[1]; 200 mg/kg ip ×10, 6 day
  Volume of tumor: 656.8±25.7 mm^3
  T/C: 62.9**** %
[1]; 200 mg/kg ip ×10, 7 day
  Volume of tumor: 759.3±84.3 mm^3
  T/C: 54.5** %
[1]; 200 mg/kg ip ×10, 8 day
  Volume of tumor: 852.0±126.7 mm^3
  T/C: 58.1* %
[1]; 200 mg/kg ip ×10, 9 day
  Volume of tumor: 695.7±29.6 mm^3
  T/C: 42.4*** %
[1]; 200 mg/kg ip ×10, 10 day
  Volume of tumor: 759.7±21.1 mm^3
  T/C: 41.9** %
[1]; 200 mg/kg ip ×10, 11 day
  Volume of tumor: 816.7±16.7 mm^3
  T/C: 39.3** %
[1]; 200 mg/kg ip ×10, 13 day
  Volume of tumor: 1070.0±41.0 mm^3
  T/C: 39.9*** %
[1]; 200 mg/kg ip ×10, 16 day
  Volume of tumor: 1110.0±21.0 mm^3
  T/C: 34.5*** %
[1]; 200 mg/kg ip ×10, 18 day
  Volume of tumor: 1446.0±75.0 mm^3
  T/C: 33.9*** %
[1]; 200 mg/kg ip ×10, 19 day
  Volume of tumor: 1405.0±159.8 mm^3
  T/C: 29.9*** %
[1]; 200 mg/kg ip ×10, 22 day
  Volume of tumor: 1583.3±145.2 mm^3
  T/C: 30.9*** %
[1]; 200 mg/kg ip ×10, 25 day
  Volume of tumor: 1708.0±243.2 mm^3
  T/C: 29.2*** %
[1]; 200 mg/kg ip ×10, 30 day
  Volume of tumor: 2033.7±430.9 mm^3
  T/C: 27.2*** %

## Nas [IMo6O24] • 34H2O [Compound M]
[2]; day 1
  Average volume of tumor, Average ±SE: 333.2±25.0 mm^3
[2]; day 2
  Average volume of tumor, Average ±SE: 404.7±16.5 mm^3
  T/C: 90.9%
[2]; day 3
  Average volume of tumor, Average ±SE: 510.0±38.8 mm^3
  T/C: 88.6%
[2]; day 4
  Average volume of tumor, Average ±SE: 575.0±14.4 mm^3
  T/C: 85.9* %
[2]; day 5
  Average volume of tumor, Average ±SE: 555.2±44.7 mm^3
  T/C: 74.7** %
[2]; day 6
  Average volume of tumor, Average ±SE: 565.5±36.7 mm^3
  T/C: 76.1** %
[2]; day 7
  Average volume of tumor, Average ±SE: 616.7±20.3 mm^3
  T/C: 64.3 **** %
[2]; day 8
  Average volume of tumor, Average ±SE: 786.0±40.0 mm^3
  T/C: 75.4*** %
[2]; day 9
  Average volume of tumor, Average ±SE: 869.0±33.2 mm^3
  T/C: 63.6*** %
[2]; day 10
  Average volume of tumor, Average ±SE: 957.9±38.1 mm^3
  T/C: 64.8*** %
[2]; day 11
  Average volume of tumor, Average ±SE: 1092.7±32.4 mm^3
  T/C: 69.5*** %
[2]; day 15
  Average volume of tumor, Average ±SE: 1540.5±106.6 mm^3
  T/C: 61.7** %
[2]; day 18
  Average volume of tumor, Average ±SE: 1821.0±127.4 mm^3
  T/C: 61.5*** %
[2]; day 21
  Average volume of tumor, Average ±SE: 2182.0±148.6 mm^3
  T/C: 64.5*** %
[2]; day 25
  Average volume of tumor, Average ±SE: 2671.7±154.5 mm^3
  T/C: 73.0** %
